Results from patent US9597407B2, “Targeted antimicrobial moieties” (C3 Jian, Inc., priority 2009, dated 2017).
“Also recorded” adds a separate entry of the source.

Tested on: bacteria
Assay: Binding of targeting peptides to microorganisms (Table 3)
Conditions: microorganism bound by the targeting peptide; binding in aqueous buffers chosen by peptide solubility, preferably 1x PBS

| Substance | Target(s) |
| --- | --- |
| PF-207 (AAGCRDLGSLSSLVTNPS; Peptide with targeting and/or antimicrobial activity) | M. luteus; also recorded: C. jeikeium |
| PF-210 (EREDGCDAMPLP; Peptide with targeting and/or antimicrobial activity) | S. epidermidis and P. aeruginosa and C. albicans and MRSA and E. faecalis and C. jeikeium and C. jejuni |
| PF-213 (MTTGVDFIIEKV; Peptide with targeting and/or antimicrobial activity) | S. epidermidis |
| PF-214 (GHLRVCWVFSASLLTPFRSATLI; Peptide with targeting and/or antimicrobial activity) | S. mutans; also recorded: S. epidermidis; also recorded: M. luteus; also recorded: E. coli; also recorded: P. aeruginosa; also recorded: A. baumannii |
| PF-216 (ESVDKITEALEEDGFPAKVQ; Peptide with targeting and/or antimicrobial activity) | S. mutans; also recorded: E. coli |
| PF-217 (DWEFTHKTIPQKK; Peptide with targeting and/or antimicrobial activity) | S. mutans |
| PF-218 (SETPEKPVGTFFYSIYYKIIL; Peptide with targeting and/or antimicrobial activity) | S. epidermidis; also recorded: M. luteus; also recorded: P. aeruginosa; also recorded: A. baumannii |
| PF-219 (FLALAVIAGLFKVILIYAAPYLK; Peptide with targeting and/or antimicrobial activity) | S. epidermidis; also recorded: M. luteus; also recorded: P. aeruginosa; also recorded: A. baumannii |
| PF-221 (VFDNIDINF; Peptide with targeting and/or antimicrobial activity) | S. epidermidis; also recorded: M. luteus; also recorded: P. aeruginosa |
| PF-223 (VKFCIECQTKLERKRR; Peptide with targeting and/or antimicrobial activity) | S. epidermidis; also recorded: M. luteus; also recorded: A. baumannii |
| PF-225 (MNCASPEFKKLMELYK; Peptide with targeting and/or antimicrobial activity) | S. epidermidis |
| PF-228 (NQLGSQAFAQL; Peptide with targeting and/or antimicrobial activity) | S. mutans |
| PF-229 (DPILIQIGFTRFALRKAEAEKIEIQVEEGVPA; Peptide with targeting and/or antimicrobial activity) | S. epidermidis; also recorded: M. luteus; also recorded: P. aeruginosa; also recorded: A. baumannii |
| PF-230 (EDKPTNTIQEIKPVKWQ; Peptide with targeting and/or antimicrobial activity) | S. mutans |
| PF-231 (AVRDFKKSVREEDEAASLNSPRTIDAQVKTSESTSVKS; Peptide with targeting and/or antimicrobial activity) | S. mutans |
| PF-232 (FDQLYALEREGKLDELLA; Peptide with targeting and/or antimicrobial activity) | S. epidermidis; also recorded: M. luteus |
| PF-236 (KEIRTATVAELNAKRRLTSAEQALAEVS; Peptide with targeting and/or antimicrobial activity) | S. mutans; also recorded: S. epidermidis; also recorded: E. coli; also recorded: C. albicans; also recorded: S. pneumoniae; also recorded: E. faecalis |
| PF-237 (YVKPKVGVHE; Peptide with targeting and/or antimicrobial activity) | S. epidermidis |
| PF-238 (RNAVVVTEATFPKYEEEITNYLNRRFGEDWSLKLEKCSVA; Peptide with targeting and/or antimicrobial activity) | S. mutans and S. epidermidis and E. coli and P. aeruginosa and C. albicans and MRSA and S. pneumoniae and E. faecalis |
| PF-239 (PKHNVVTGVSVDLDYKP; Peptide with targeting and/or antimicrobial activity) | S. mutans; also recorded: E. coli |
| PF-240 (RITEVPPDEHSDR; Peptide with targeting and/or antimicrobial activity) | S. mutans; also recorded: E. coli |
| PF-242 (KLFEDPLIKSKAVENFQTTWHEQCLAKELAKNM; Peptide with targeting and/or antimicrobial activity) | S. mutans; also recorded: E. coli |
| PF-244 (HMRTISYLLAFAKFSLFIPPKQSLKRL; Peptide with targeting and/or antimicrobial activity) | S. epidermidis; also recorded: M. luteus; also recorded: P. aeruginosa; also recorded: A. baumannii |
| PF-245 (MNDVKPVVQPKQTLKAFLVQLLSVRAGVYIKQNNQLPKTKG; Peptide with targeting and/or antimicrobial activity) | S. epidermidis; also recorded: M. luteus; also recorded: P. aeruginosa; also recorded: A. baumannii |
| PF-246 (QPDEKAEFFDPSLDKVYRHPTFYHIPDGIEHM; Peptide with targeting and/or antimicrobial activity) | S. mutans |
| PF-247 (ETAASETH; Peptide with targeting and/or antimicrobial activity) | S. epidermidis |

| Substance | Target(s) |
| --- | --- |
| PF-248 (ILSKLWFWMINSLGVVLLVSYWLLAKWGVA; Peptide with targeting and/or antimicrobial activity) | S. mutans; also recorded: S. epidermidis; also recorded: M. luteus; also recorded: E. coli; also recorded: P. aeruginosa; also recorded: A. baumannii |
| PF-253 (VRDDDS; Peptide with targeting and/or antimicrobial activity) | S. epidermidis; also recorded: M. luteus |
| PF-254 (FIYGVGFVPHFWLWKWLFSPWIAWPLMLLGYYIWFLT; Peptide with targeting and/or antimicrobial activity) | S. epidermidis; also recorded: M. luteus; also recorded: P. aeruginosa; also recorded: A. baumannii |
| PF-256 (EYFKQVYVKNEKIYSFWICKDLSPKEAAKRAEDILVKLK; Peptide with targeting and/or antimicrobial activity) | S. epidermidis |
| PF-259 (LPFSKIGRRVSYKKKDVLKYEQSKTVLNTAQLATV; Peptide with targeting and/or antimicrobial activity) | S. epidermidis; also recorded: P. aeruginosa; also recorded: A. baumannii |
| PF-262 (DPHSEIDVTRYCQLHHFTCQTMQISEREFHYLIETQ; Peptide with targeting and/or antimicrobial activity) | S. mutans; also recorded: S. epidermidis; also recorded: M. luteus; also recorded: E. coli; also recorded: P. aeruginosa; also recorded: A. baumannii |
| PF-263 (NLKKCPC; Peptide with targeting and/or antimicrobial activity) | S. epidermidis; also recorded: M. luteus; also recorded: A. baumannii |
| PF-265 (MKTLFFPLFLIIFVLIIQALDQSYQKKIGISKPQKHPEFMQ; Peptide with targeting and/or antimicrobial activity) | S. epidermidis; also recorded: M. luteus; also recorded: A. baumannii |
| PF-266 (DQEKKNKTEESTEQ; Peptide with targeting and/or antimicrobial activity) | S. mutans |
| PF-267 (SDDKRTD; Peptide with targeting and/or antimicrobial activity) | M. luteus |
| PF-268 (EVLLSDLRPDIFSET; Peptide with targeting and/or antimicrobial activity) | S. mutans |
| PF-275 (LVSGVANTVKNTAHTVGNTAKHAGHVAADTTVKATKKQQVK; Peptide with targeting and/or antimicrobial activity) | S. mutans |
| PF-279 (SHIGFISISACLAVLLGIARLFVWTWVKFFA; Peptide with targeting and/or antimicrobial activity) | S. mutans; also recorded: S. epidermidis; also recorded: M. luteus; also recorded: E. coli; also recorded: P. aeruginosa; also recorded: A. baumannii |
| PF-281 (SYNTYYNKLIHGQRTPDGM; Peptide with targeting and/or antimicrobial activity) | S. mutans; also recorded: E. coli |
| PF-282 (QNNDTSAWCGSAHKNGNS; Peptide with targeting and/or antimicrobial activity) | S. mutans |
| PF-284 (MRYITYSLIPRLLSKKVIHQQ; Peptide with targeting and/or antimicrobial activity) | C. difficile |
| PF-285 (VPAKLLRVIDEIPE; Peptide with targeting and/or antimicrobial activity) | S. mutans |
| PF-288 (IYQLLNIEYSEDD; Peptide with targeting and/or antimicrobial activity) | S. mutans; also recorded: E. coli |
| PF-291 (DVDGAIESEL; Peptide with targeting and/or antimicrobial activity) | S. mutans; also recorded: E. coli |
| PF-295 (NIQVYESECGNYIFKKSDESFLIDIFDKNGTH; Peptide with targeting and/or antimicrobial activity) | C. difficile |
| PF-299 (LATKLKYEKEHKKM; Peptide with targeting and/or antimicrobial activity) | B. subtilis |
| PF-300 (VKDVLLELFNKIIGA; Peptide with targeting and/or antimicrobial activity) | B. subtilis; also recorded: C. difficile |
| PF-304 (LVKDTSDIKNDLNNIEIVTSKNSNDIAKLKSVK; Peptide with targeting and/or antimicrobial activity) | S. mutans |
| PF-308 (QQYLILDRM; Peptide with targeting and/or antimicrobial activity) | C. difficile |
| PF-309 (GIPGMTAAPAEENEQEENADEE; Peptide with targeting and/or antimicrobial activity) | S. mutans; also recorded: E. coli |
| PF-311 (IDAVTKKKTTCMIRAPTKIPIAHTDN; Peptide with targeting and/or antimicrobial activity) | C. difficile |
